According to PubChem BioAssay (NCI):
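Assay format: 96-well plates, 48-hour exposure. GI50 marks 50% less growth. TGI denotes the concentration required for complete inhibition of growth.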

Columns and labels:
Test in all cases: NCI-60 cell line screen, 48 h
SK-MEL-28 melanoma = system: SK-MEL-28 melanoma
SN12C renal = system: SN12C renal
HS 578T breast = system: HS 578T breast
SR leukemia = system: SR leukemia
MDA-MB-231 breast = system: MDA-MB-231 breast
M14 melanoma = system: M14 melanoma
OVCAR-5 ovarian = system: OVCAR-5 ovarian
SNB-75 CNS = system: SNB-75 CNS
IGROV1 ovarian = system: IGROV1 ovarian
HOP-62 NSCLC = system: HOP-62 NSCLC
UO-31 renal = system: UO-31 renal
NCI/ADR-RES ovarian = system: NCI/ADR-RES ovarian
COLO 205 colon = system: COLO 205 colon
CCRF-CEM leukemia = system: CCRF-CEM leukemia
U251 CNS = system: U251 CNS
MCF7 breast = system: MCF7 breast
SK-OV-3 ovarian = system: SK-OV-3 ovarian
SF-539 CNS = system: SF-539 CNS
SK-MEL-2 melanoma = system: SK-MEL-2 melanoma
BT-549 breast = system: BT-549 breast
T-47D breast = system: T-47D breast
SW-620 colon = system: SW-620 colon
NCI-H460 lung = system: NCI-H460 lung
UACC-257 melanoma = system: UACC-257 melanoma
SF-295 CNS = system: SF-295 CNS
HOP-92 NSCLC = system: HOP-92 NSCLC
OVCAR-4 ovarian = system: OVCAR-4 ovarian
ACHN renal = system: ACHN renal
MOLT-4 leukemia = system: MOLT-4 leukemia
NCI-H23 lung = system: NCI-H23 lung
HCC-2998 colon = system: HCC-2998 colon
HL-60(TB) leukemia = system: HL-60(TB) leukemia
TK-10 renal = system: TK-10 renal
MDA-MB-435 = system: MDA-MB-435
UACC-62 melanoma = system: UACC-62 melanoma
MALME-3M melanoma = system: MALME-3M melanoma
KM12 colon = system: KM12 colon
NCI-H226 lung = system: NCI-H226 lung
SK-MEL-5 melanoma = system: SK-MEL-5 melanoma
DU-145 prostate = system: DU-145 prostate
CAKI-1 renal = system: CAKI-1 renal
RPMI-8226 leukemia = system: RPMI-8226 leukemia
PC-3 prostate = system: PC-3 prostate
K-562 leukemia = system: K-562 leukemia
HT29 colon = system: HT29 colon
HCT-15 colon = system: HCT-15 colon

COc1ccc(-c2ccc(-c3ccc(C(=N)N)c(F)c3)s2)cc1
GI50 (SK-MEL-28 melanoma): 1510 nM | TGI (SK-MEL-28 melanoma): 3190 nM | GI50 (SN12C renal): 622 nM | TGI (SN12C renal): 1520 nM | GI50 (HS 578T breast): 1900 nM | TGI (HS 578T breast): 4710 nM | GI50 (SR leukemia): 269 nM | TGI (SR leukemia): 787 nM | GI50 (MDA-MB-231 breast): 215 nM | TGI (MDA-MB-231 breast): 515 nM | GI50 (M14 melanoma): 651 nM | TGI (M14 melanoma): 1910 nM | GI50 (OVCAR-5 ovarian): 323 nM | TGI (OVCAR-5 ovarian): 1120 nM | GI50 (SNB-75 CNS): 1620 nM | TGI (SNB-75 CNS): 3310 nM | GI50 (IGROV1 ovarian): 1840 nM | TGI (IGROV1 ovarian): 4510 nM | GI50 (HOP-62 NSCLC): 1530 nM | TGI (HOP-62 NSCLC): 3070 nM | GI50 (UO-31 renal): 1010 nM | TGI (UO-31 renal): 2720 nM | GI50 (NCI/ADR-RES ovarian): 1090 nM | TGI (NCI/ADR-RES ovarian): 3440 nM | GI50 (COLO 205 colon): 184 nM | TGI (COLO 205 colon): 359 nM | GI50 (CCRF-CEM leukemia): 286 nM | TGI (CCRF-CEM leukemia): 853 nM | GI50 (U251 CNS): 184 nM | TGI (U251 CNS): 368 nM | GI50 (MCF7 breast): 212 nM | TGI (MCF7 breast): 502 nM | GI50 (SK-OV-3 ovarian): 1570 nM | TGI (SK-OV-3 ovarian): 3160 nM | GI50 (SF-539 CNS): 793 nM | TGI (SF-539 CNS): 2630 nM | GI50 (SK-MEL-2 melanoma): 2010 nM | TGI (SK-MEL-2 melanoma): 4100 nM | GI50 (BT-549 breast): 1570 nM | TGI (BT-549 breast): 3240 nM | GI50 (T-47D breast): 185 nM | TGI (T-47D breast): 413 nM | GI50 (SW-620 colon): 222 nM | TGI (SW-620 colon): 541 nM | GI50 (NCI-H460 lung): 261 nM | TGI (NCI-H460 lung): 690 nM | GI50 (UACC-257 melanoma): 1340 nM | TGI (UACC-257 melanoma): 2940 nM | GI50 (SF-295 CNS): 741 nM | TGI (SF-295 CNS): 2120 nM | GI50 (HOP-92 NSCLC): 867 nM | TGI (HOP-92 NSCLC): 2810 nM | GI50 (OVCAR-4 ovarian): 296 nM | TGI (OVCAR-4 ovarian): 868 nM | GI50 (ACHN renal): 209 nM | TGI (ACHN renal): 448 nM | GI50 (MOLT-4 leukemia): 495 nM | TGI (MOLT-4 leukemia): 1870 nM | GI50 (NCI-H23 lung): 1430 nM | TGI (NCI-H23 lung): 3350 nM | GI50 (HCC-2998 colon): 230 nM | TGI (HCC-2998 colon): 478 nM | GI50 (HL-60(TB) leukemia): 215 nM | TGI (HL-60(TB) leukemia): 462 nM | GI50 (TK-10 renal): 720 nM | TGI (TK-10 renal): 1910 nM | GI50 (MDA-MB-435): 310 nM | TGI (MDA-MB-435): 881 nM | GI50 (UACC-62 melanoma): 1800 nM | TGI (UACC-62 melanoma): 3700 nM | GI50 (MALME-3M melanoma): 2290 nM | TGI (MALME-3M melanoma): 4700 nM | GI50 (KM12 colon): 291 nM | TGI (KM12 colon): 861 nM | GI50 (NCI-H226 lung): 1990 nM | TGI (NCI-H226 lung): 4640 nM | GI50 (SK-MEL-5 melanoma): 1230 nM | TGI (SK-MEL-5 melanoma): 2830 nM | GI50 (DU-145 prostate): 564 nM | TGI (DU-145 prostate): 1760 nM | GI50 (CAKI-1 renal): 1540 nM | TGI (CAKI-1 renal): 2990 nM | GI50 (RPMI-8226 leukemia): 369 nM | TGI (RPMI-8226 leukemia): 1800 nM | GI50 (PC-3 prostate): 787 nM | TGI (PC-3 prostate): 2290 nM | GI50 (K-562 leukemia): 216 nM | TGI (K-562 leukemia): 573 nM | GI50 (HT29 colon): 250 nM | TGI (HT29 colon): 707 nM | GI50 (HCT-15 colon): 211 nM | TGI (HCT-15 colon): 528 nM
